Experimental data reported in patent publication US20260210939A1, “MODIFIED OLFACTORY RECEPTORS” (GIVAUDAN SA, priority 2022, published 2026).
One block for each compound: values may come before it.

Columns and labels:
OR2T4 = target: T1, OR2T4 (Homo sapiens, UniProt Q8NH00, D328E/G331D/M330K); settings: OR2T4 with optimized C-terminus SEQ ID NO: 86
T1 sequence (Q8NH00 with tags, fused parts or gaps D328E/M330K/G331D): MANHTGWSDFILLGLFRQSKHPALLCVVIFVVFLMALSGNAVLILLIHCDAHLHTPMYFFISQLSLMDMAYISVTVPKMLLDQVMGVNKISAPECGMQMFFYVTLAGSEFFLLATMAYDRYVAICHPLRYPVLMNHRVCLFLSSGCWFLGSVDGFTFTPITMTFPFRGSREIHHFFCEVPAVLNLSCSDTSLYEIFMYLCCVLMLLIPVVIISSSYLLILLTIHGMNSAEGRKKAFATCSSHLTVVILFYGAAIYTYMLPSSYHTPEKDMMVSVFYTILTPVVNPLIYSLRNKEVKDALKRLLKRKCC

OR2T11 = target: T2, OR2T11 (Homo sapiens, UniProt Q8NH01, C119R); test: CRE-luciferase assay, HEK293T cells expressing OR2T11 (wild-type / modified C-terminus); format: cell-based
T2 construct: Improved functional expression of modified OR-genes containing the truncated, optimized C-terminus; expressed in transfected cells; host or cells: HEK293T stably expressing human RTP1S(V227I) and RTP2(L220R)
T2 sequence (Q8NH01 with tags, fused parts or gaps C119R): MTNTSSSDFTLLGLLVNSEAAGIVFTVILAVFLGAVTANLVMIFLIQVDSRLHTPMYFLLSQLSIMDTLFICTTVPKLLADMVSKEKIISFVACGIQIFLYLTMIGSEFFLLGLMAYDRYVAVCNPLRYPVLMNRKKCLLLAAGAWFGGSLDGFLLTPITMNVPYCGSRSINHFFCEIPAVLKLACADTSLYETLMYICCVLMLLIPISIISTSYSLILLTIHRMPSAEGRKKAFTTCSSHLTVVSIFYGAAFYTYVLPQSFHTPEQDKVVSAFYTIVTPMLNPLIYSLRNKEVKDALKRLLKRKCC

OR10A3 = target: T3, OR10A3 (Homo sapiens, UniProt P58181); test: Dose-response test of single lactones on OR10A3 (luciferase); format: cell-based
T3 construct: Class II OR library members with modified C-terminal domains; expressed in transfected cells
T3 sequence (P58181 with tags, fused parts or gaps): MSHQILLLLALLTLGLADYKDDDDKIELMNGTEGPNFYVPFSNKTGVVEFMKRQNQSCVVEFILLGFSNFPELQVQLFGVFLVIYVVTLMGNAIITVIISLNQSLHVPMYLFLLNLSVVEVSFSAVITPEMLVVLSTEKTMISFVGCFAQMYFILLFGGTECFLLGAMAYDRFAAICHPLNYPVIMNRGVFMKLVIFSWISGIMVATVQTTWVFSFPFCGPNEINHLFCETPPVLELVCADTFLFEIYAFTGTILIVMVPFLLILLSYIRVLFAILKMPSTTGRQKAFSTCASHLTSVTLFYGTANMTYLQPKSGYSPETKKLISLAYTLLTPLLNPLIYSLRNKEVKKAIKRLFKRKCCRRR
Protocol: In a subsequent de-convultion experiment, the single ingredients were tested in a dose-response test on all the identified OR. […] Thus, OR2AP1 and OR2J2 are particularly strongly activated by the long-chain dodecalactone gamma, while OR10A3 is very sensitive to several longer chain lactones. […] Among the five OR, OR10A3 is the most sensitive.

SMILES: C=CCSSCC=C [Diallyl disulfide]
ligand identification in sulfur odorant screen (OR2T4): good ligands | Comments on efficacy (OR2T11): No induction | Detection threshold; concentration for 2-fold induction (OR2T11; changed C-term. SEQ ID NO: 86): 2.03 µM | EC50 (OR2T11; changed C-term. SEQ ID NO: 86): 6.51 µM | Fold-improvement potency (OR2T11; changed C-term. vs wild-type): >>40 | Fold-improvement threshold (OR2T11; changed C-term. vs wild-type): >100 | Detection threshold; concentration for 2-fold induction (OR2T11; wild-type): >200 µM | EC50 (OR2T11; wild-type): > 200 µM

EC10, concentration for 10-fold OR activation (OR10A3): 298.04 μM
SMILES: CCCC1CCC(=O)O1 (stereo not drawn) [Heptalactone gamma]
